Data reported in patent US12599136B2, “Substituted isophthalic acid diamides and their use as herbicides” (Bayer Aktiengesellschaft, priority 2020, dated 2026).

Assays:
Format in all cases: in vivo
Abutilon theophrasti [1] = assay: Pre-emergence herbicidal action against ABUTH; conditions: visual score after 3 weeks vs untreated controls
Description: (§1) Seeds of monocotyledonous and dicotyledonous weed plants and crop plants are laid out in sandy loam soil in wood-fiber pots and covered with soil. The compounds of the invention, formulated in the form of wettable powders (WP) or as emulsion concentrates (EC), are then applied to the surface of the covering soil in the form of an aqueous suspension or emulsion at a water application rate equivalent to 600 to 800 l/ha, with addition of 0.2% wetting agent. After the treatment, the pots are placed in a greenhouse and kept under good growth conditions for the trial plants. The damage to the test plants is scored visually after a test period of 3 weeks by comparison with untreated controls (herbicidal activity in percent (%): 100% activity=the plants have died, 0% activity=like control plants). […] The tables below illustrate, in an illustrative manner, the post-emergence herbicidal action of the compounds of the invention, the herbicidal activity being stated in percent.

Alopecurus myosuroides [2] = assay: Pre-emergence herbicidal action against ALOMY; conditions: 80 g/ha; visual score after 3 weeks vs untreated controls
Description: as §1

Amaranthus retroflexus [3] = assay: Pre-emergence herbicidal action against AMARE; conditions: visual score after 3 weeks vs untreated controls
Description: as §1

Echinochloa crus-galli [4] = assay: Pre-emergence herbicidal action against ECHCG; conditions: 80 g/ha; visual score after 3 weeks vs untreated controls
Description: as §1

Matricaria inodora [5] = assay: Pre-emergence herbicidal action against MATIN; conditions: visual score after 3 weeks vs untreated controls
Description: as §1

Setaria viridis [6] = assay: Pre-emergence herbicidal action against SETVI; conditions: 80 g/ha
Description: as §1

Abutilon theophrasti [7] = assay: Post-emergence herbicidal action against ABUTH
Procedure: (§2) Seeds of monocotyledonous and dicotyledonous weed and crop plants are laid out in sandy loam soil in wood-fiber pots, covered with soil and cultivated in a greenhouse under good growth conditions. 2 to 3 weeks after sowing, the test plants are treated at the one-leaf stage. The compounds of the invention, formulated in the form of wettable powders (WP) or as emulsion concentrates (EC), are then sprayed onto the green parts of the plants in the form of an aqueous suspension or emulsion at a water application rate equivalent to 600 to 800 l/ha, with addition of 0.2% wetting agent. After the test plants have been left to stand in the greenhouse under optimal growth conditions for about 3 weeks, the action of the preparations is assessed visually in comparison to untreated controls (herbicidal action in percent (%): 100% activity=the plants have died, 0% activity=like control plants). […] The tables below illustrate, in an illustrative manner, the post-emergence herbicidal action of the compounds of the invention, the herbicidal activity being stated in percent.

Amaranthus retroflexus [8] = assay: Post-emergence herbicidal action against AMARE; conditions: visual assessment about 3 weeks after treatment
Procedure: as §2

Echinochloa crus-galli [9] = assay: Post-emergence herbicidal action against ECHCG; conditions: 20 g/ha, visual assessment about 3 weeks after treatment
Procedure: as §2

Pharbitis purpurea = assay: Post-emergence herbicidal action against PHBPU; conditions: 20 g/ha, visual assessment about 3 weeks after treatment
Procedure: as §2

Setaria viridis [10] = assay: Post-emergence herbicidal action against SETVI; conditions: visual assessment about 3 weeks after treatment
Procedure: as §2

Veronica persica [11] = assay: Post-emergence herbicidal action against VERPE; conditions: 20 g/ha, visual assessment about 3 weeks after treatment
Procedure: as §2

Viola tricolor [12] = assay: Post-emergence herbicidal action against VIOTR
Procedure: as §2

Veronica persica [13] = assay: Pre-emergence herbicidal action against VERPE; conditions: 80 g/ha
Description: as §1

Viola tricolor [14] = assay: Pre-emergence herbicidal action against VIOTR; conditions: 80 g/ha
Description: as §1

Alopecurus myosuroides [15] = assay: Post-emergence herbicidal action against ALOMY
Procedure: as §2

Matricaria inodora [16] = assay: Post-emergence herbicidal action against MATIN; conditions: 20 g/ha, visual assessment about 3 weeks after treatment
Procedure: as §2

Avena fatua = assay: Post-emergence herbicidal action against AVEFA; conditions: 20 g/ha, visual assessment about 3 weeks after treatment
Procedure: as §2

Digitaria sanguinalis = assay: Pre-emergence herbicidal action against DIGSA
Description: as §1

Compound	Pre-emergence action against ABUTH (Abutilon theophrasti [1]; 80 g/ha)	Pre-emergence action against ALOMY (Alopecurus myosuroides [2])	Pre-emergence action against AMARE (Amaranthus retroflexus [3]; 20 g/ha)	Pre-emergence action against AMARE (Amaranthus retroflexus [3]; 80 g/ha)	Pre-emergence action against ECHCG (Echinochloa crus-galli [4])	Pre-emergence action against MATIN (Matricaria inodora [5]; 20 g/ha)	Pre-emergence action against MATIN (Matricaria inodora [5]; 80 g/ha)	Pre-emergence action against SETVI (Setaria viridis [6])	Post-emergence action against ABUTH (Abutilon theophrasti [7]; 5 g/ha)	Post-emergence action against ABUTH (Abutilon theophrasti [7]; 20 g/ha)	Post-emergence action against AMARE in % (Amaranthus retroflexus [8]; 5 g/ha)	Post-emergence action against AMARE in % (Amaranthus retroflexus [8]; 20 g/ha)	Post-emergence action against ECHCG in % (Echinochloa crus-galli [9])	Post-emergence action against PHBPU in % (Pharbitis purpurea)	Post-emergence action against SETVI in % (Setaria viridis [10]; 20 g/ha)	Post-emergence action against VERPE in % (Veronica persica [11])	Post-emergence action against VIOTR in % (Viola tricolor [12]; 20 g/ha)	Pre-emergence action against VERPE (Veronica persica [13])	Pre-emergence action against VIOTR (Viola tricolor [14])	Post-emergence action against MATIN in % (Matricaria inodora [16])	further results
Cc1c(C(=O)Nc2nnnn2C)ccc(C(F)F)c1C(=O)N(C)C [Example 1-50]	100%	80%	90%	100%	80%	80%	90%	80%	80%	90%	90%	100%	80%	80%	80%	80%	80%				
CCN(C)C(=O)c1c(C(F)F)ccc(C(=O)Nc2nnnn2C)c1C [Example 1-51]	100%	80%	80%	100%	90%		90%	80%	80%	80%	100%	100%	80%	90%	80%	80%	90%	80%	90%	80%	Post-emergence action against ALOMY (Alopecurus myosuroides [15]; 20 g/ha): 80%; Post-emergence action against SETVI in % (Setaria viridis [10]; 5 g/ha): 80%; Post-emergence action against VIOTR in % (Viola tricolor [12]; 5 g/ha): 80%
CCN(CC)C(=O)c1c(C(F)F)ccc(C(=O)Nc2nnnn2C)c1C [Example 1-59]	100%	90%	100%	100%			90%	100%	90%	90%	100%	100%	80%		90%	90%	80%	90%		90%	Post-emergence action against ALOMY (Alopecurus myosuroides [15]; 5 g/ha): 90%; Post-emergence action against ALOMY (Alopecurus myosuroides [15]; 20 g/ha): 90%; Post-emergence action against AVEFA in % (Avena fatua): 90%; Post-emergence action against SETVI in % (Setaria viridis [10]; 5 g/ha): 90%
Cn1nnnc1NC(=O)c1ccc(C(F)F)c(C(=O)N(C2CC2)C2CC2)c1Cl [Example 1-175]	100%		80%	100%		90%	90%		80%	90%	100%	100%							90%	90%	Pre-emergence action against ABUTH (Abutilon theophrasti [1]; 20 g/ha): 90%
CCOC(=O)[C@@H]1CCCN1C(=O)c1c(C(F)(F)F)ccc(C(=O)Nc2nnnn2C)c1Cl [Example 1-400]	100%		90%	100%			90%														Pre-emergence action against DIGSA (Digitaria sanguinalis; 20 g/ha): 100%; Pre-emergence action against DIGSA (Digitaria sanguinalis; 80 g/ha): 100%
